Where two headings read alike, the source gives them in different places. Residues, ends and D or L forms follow the SMILES beside them. No end group written: not given here.

From article PMC11131246, “Molecular determinants for brain targeting by peptides: a meta-analysis approach with experimental validation” (Fluids and Barriers of the CNS, 2024) come the findings set out here.

For series [1], the system named is HBEC-5i cells. The series can be described thus: Translocation across in vitro BBB model (HBEC-5i monolayer, transwell). It is filed as in vitro ADME, human. Particulars: HBEC-5i monolayer on AF-coated PET transwell inserts (1.0 µm pores), 8 days, CF-peptide 5.0 µM in DMEM:F12 without phenol red added to apical side, 24 h, fluorescence, plate reader, mean ± SD, triplicates of three independent experiments. Here is the method:
Throughout 8 days, medium was changed every other day. On the day of the experiment, cells were washed twice with 1X PBS (137.0 mM NaCl, 2.7 mM KCl, 10.0 mM Na2HPO4, and 1.8 mM KH2PO4), and once with DMEM:F12 without phenol red. Then, CF-peptides (5.0 μM, in DMEM:F12 without phenol red) were added to the apical side of the in vitro BBB model and incubated for 24 h. Finally, samples from the apical and basolateral side were collected and fluorescence intensity analyzed using a Varioskan^TM LUX multimode microplate reader (Thermo Fisher, Spain). […] Experiments were performed in triplicates on different days using three independently grown cell cultures. Seeking experimental support for our hypothesis, we have synthesized and tested in vitro the activity of ten peptides (Table 1), selected among the 14 BBBpS entries by their lowest S score in an OLS ranking.

The nature of series [2]: Cytotoxicity, CellTiter-Blue cell viability assay. The format is cell-based. Particulars: human; read-out: Cytotoxicity IC50 HBEC-5i. Here is the method:
(§1) Peptide cytotoxicity was determined using the CellTiter-Blue® cell viability assay, following a described protocol. Briefly, all cell lines were carefully harvested with trypsin–EDTA and seeded 10.000–20.000 cells/100 μL into 96-well clear flat-bottomed polystyrene plates (Corning, USA) for 24 h. After medium removal, cells were washed twice with 1X PBS, and 100 µL of previously diluted peptides (range from 0.05–100.0 µM) in the respective medium were added to cells. Then, after 24 h, cells were washed twice with 1X PBS and 20 µL of CellTiter-Blue® Reagent (diluted in 100 µL of medium) was added to each well and incubated for 3 h in culturing conditions. The fluorescence intensity was measured using Varioskan™ LUX multimode microplate reader.
(§2) IC50 values were determined using GraphPad Prism 7.0 software using a log(inhibitor) versus normalized response. Experiments were performed in triplicates on different days using three independently grown cell cultures.
(In general: Alamar Blue is a resazurin reagent that responds to reducing activity.)

Series [3] can be described thus: Cytotoxicity, CellTiter-Blue cell viability assay. It is filed as cell-based. Particulars: human; CellTiter-Blue, peptides 0.05–100.0 µM, 24 h; triplicates, three independent cultures; read-out: Cytotoxicity IC50 HeLa. Here is the method:
as §1, §2

Series [4] is described as follows: Cytotoxicity, CellTiter-Blue cell viability assay. It is filed as cell-based. Particulars: human; CellTiter-Blue, peptides 0.05–100.0 µM, 24 h; triplicates, three independent cultures; read-out: Cytotoxicity IC50 Hs68. Here is the method: as §1, §2
Series [5] is described as follows: Cytotoxicity, CellTiter-Blue cell viability assay. Particulars: human; CellTiter-Blue, peptides 0.05–100.0 µM, 24 h; triplicates, three independent cultures. It is filed as cell-based. Here is the method: as §1, §2
Series [6] can be described thus: Cytotoxicity, CellTiter-Blue cell viability assay. Particulars: human; CellTiter-Blue, peptides 0.05–100.0 µM, 24 h; triplicates, three independent cultures; read-out: Cytotoxicity IC50 HEK-293. It is filed as cell-based. The procedure:
as §1, §2

Series [7] can be described thus: Biodistribution of 67Ga-radiolabeled peptides. On the set-up: species or system mouse. Particulars: in vivo, iv, 100 uCi, total radioactivity, i.v. tail vein, mean ± SD, n = 3; for tissue uptake at 1 h: female, CD1, mouse, 1 h post injection. The procedure:
All animal experiments were performed in compliance with national and EU legislation for good practices on laboratory animal science. The animals were housed in a temperature and humidity-controlled environment with a 12 h light/12 h dark schedule. Biodistribution of radiolabeled peptides was performed on 7 weeks old CD1 female mice.
Animals were intravenously injected into the tail vein with 100 µL of a 25 µM saline solution of the ^67Ga-peptide with a radioactivity around 100 µCi. The mice were euthanized by cervical dislocation at 2 min and 1 h after injection. The dose administered and the radioactivity in the euthanized animals was measured using a dose calibrator (Carpintec CRC-15W, Ramsey, USA). The difference between the radioactivity in the injected and the euthanized animals was assumed to be due to excretion. Brain and tissues of interest without previous perfusion were dissected, washed, and weighed, and their radioactivity was measured using a γ counter (Hidex AMG, Hidex, Turku, Finland). The uptake in the brain and tissues of interest was calculated and expressed as a percentage of injected radioactivity dose per gram of tissue (% ID/g).

Series [8] in a line: Analytical RP-HPLC retention time (used as indication of hydrophobicity). The format is physicochemical. Particulars: analytical reverse phase HPLC, UV chromatogram; free and CF-labelled peptides.

For orientation: IC50 means the concentration that gives 50% inhibition. For the molecule EEGRLYMRYYSPTTRRYG-NH2 [BBBpS_3], the “Translocation (%) HBEC-5i” value in series [1] came out at 35.7 ± 3.6%. Also, the IC50 at 24 h in series [2], in series [3], in series [4], in series [5] and in series [6] was > 100 µM in each case.

As for `CC[C@H](C)[C@H](NC(=O)CNC(=O)[C@H](CCCNC(=N)N)NC(=O)[C@H](Cc1ccc(O)cc1)NC(=O)[C@H](CS)NC(=O)[C@@H](NC(=O)[C@H](CCCNC(=N)N)NC(=O)[C@H](Cc1ccccc1)NC(=O)[C@H](CS)NC(=O)[C@H](Cc1c[nH]c2ccccc12)NC(=O)[C@@H](N)CCCCN)C(C)C)C(=O)N[C@@H](CS)C(=O)N[C@@H](Cc1ccc(O)cc1)C(=O)N[C@@H](CCCNC(=N)N)C(=O)N[C@@H](CCCNC(=N)N)C(=O)N[C@@H](CS)C(=O)N[C@@H](CCCNC(=N)N)C(N)=O` [non-BBBpS_2] (H-KWCFRVCYRGICYRRCR-NH2), in series [1], the “Translocation (%) HBEC-5i” value is reported as 2.6 ± 1.2%. In addition, the IC50 at 24 h was determined as 20.7 ± 1 µM in series [2]; 39.4 ± 1.8 µM in series [3]; 26.4 ± 2.9 µM in series [4]; 26.9 ± 3 µM in series [5]; 14.7 ± 1.4 µM in series [6]. Moreover, the tissue uptake at 1 h in series [7] (brain without perfusion, CD1 female mice, γ counter, read-out: Tissue distribution, Brain (brain uptake)) amounted to 0.13 ± 0.03 %ID/g; in series [7] (liver, CD1 mice, read-out: Tissue distribution, Liver) it was 22.8 ± 10.1 %ID/g. Further, the tissue uptake at 2 min in series [7] (mouse, brain without perfusion, 2 min post injection, CD1 female mice, 100 µL of 25 µM 67Ga-peptide, γ counter, read-out: Tissue distribution, Brain (brain uptake)) is 0.27 ± 0.04 %ID/g. Also, in series [8], the “HPLC tR” value is reported as 6.81 min.

Take “AGILKRW [PepH3, well-tested BBBpS standard, reference compound]”: the “Translocation (%) HBEC-5i” value in series [1] is given as 54.0 ± 2.2%.

As for “KKKKQPPKPKKPKTQEKKKKQPPKPKR-NH2 [non-BBBpS_1]”, in series [1], the “Translocation (%) HBEC-5i” value was found to be 20.0 ± 3.5%. Besides, the IC50 at 24 h in series [2], in series [3], in series [4], in series [5] and in series [6] was > 100 µM in each case.
